Measurements from patent publication US11154587B2, “Use of peptides to stimulate the immune system” (DIACCURATE, priority 2015, dated 2021).
Entries after “also recorded” stand apart in the source; their conditions may differ. Where a SMILES comes first, the peptide text is derived from it. [ ]: non-standard residue; d: D form. 2Nal = N[C@@H](Cc1ccc2ccccc2c1)C(=O)O

Legend:
[1] = target: T1, Recombinant PLA2G1B (Homo sapiens, UniProt P04054); experiment: Bioassay: recombinant PLA2GIB-mediated inhibition of IL-7-induced nuclear translocation of phospho STAT5 in CD4 T cells (STED microscopy); format: cell-based
T1 construct: sPLA2GIB was produced in E. Coli; Inclusion bodies were solubilized in urea and afterwards renatured; made in house; host or cells: E. coli
T1 sequence (P04054 23-148): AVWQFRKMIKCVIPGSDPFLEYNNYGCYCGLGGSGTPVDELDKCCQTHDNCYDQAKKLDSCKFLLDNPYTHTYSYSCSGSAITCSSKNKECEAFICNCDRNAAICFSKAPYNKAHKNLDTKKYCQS
Experimental: FIG. 1: Peptide I inhibits sPLA2G1B: Recombinant PLA2G1B (75 nanoM) was first exposed 30 mn to indicated concentrations of Peptide I. The mixture was then applied in the bioassay described in Materials and Methods. % inhibition of IL-7-induced nuclear translocation of phospho STAT5 was measured by STED microscopy. The results of two experiments are shown.
FIG. 2: Calculation of IC50 of Peptide I: Experimental data were analyzed by Prism software in order to precisely calculate the IC50.
sPLA2GIB was produced in E. Coli. Inclusion bodies were solubilized in urea and afterwards renatured. sPLA2GIB was further purified by HPLC. Homogeneity of the preparations was verified by MassSpectrometry (Malditoff). The specific activity of the enzyme was always measured and compared to standard preparations.
(§1) Inhibition of IL-7-induced phosphorylated STAT5 nuclear translocation (NTpSTAT) was measured as follows: VP plasma (5 or 10%) was first incubated with purified HD CD4 T cells (20 min) before stimulation by IL-7 (2 nM, 15 min.). Cells were then plated on polylysine coated glass slides before fixation by PFA (1.5%) and permeabilization by methanol (90% at −20° C.). pSTAT5 was then stained by rabbit anti-STAT5 and labeled with goat anti-rabbit-Atto642. The cells were analyzed by pulsed STED microscopy and the number of nuclei expressing pSTAT5 were counted.
We first investigated the effects of different doses of Peptide I on the biological activity of recombinant PLA2GIB as tested in the bioassay described in Materials and Methods. […] The experiment was repeated twice. From the experimental data we derived the corresponding theoretical curve that gives the IC50. For Peptide I, IC 50 is about 4.9 microM (FIG. 2).

[2] = target: T2, PLA2 GIB contained in the plasma of viremic patients (Homo sapiens, UniProt P04054); experiment: Bioassay: inhibition of IL-7-induced NTpSTAT5 in healthy donor CD4 T cells by plasma/sera of viremic HIV-infected patients; format: cell-based
T2 construct: CD4 lymphocytes purified from healthy donors were exposed to sera from viremic HIV-infected patients at 1% or 3% dilution; from tissue; host or cells: plasma/sera of viremic HIV-infected patients
T2 sequence (P04054 23-148): as above
Experimental: FIG. 3: Peptide I restores the activity of CD4 lymphocytes: CD4 lymphocytes purified from healthy donors were exposed to sera from viremic HIV-infected patients at 1% or 3% dilution. […] Five sera were tested and the results are given as the median+/−SD.
Viremic patients (VP) included in the study had been HIV-positive for more than one year. […] All blood samples from VP were drawn at Hôpital Bicêtre or Centre Hospitalier de Gonesse.
as §1
We have shown that PLA2 GIB contained in the plasma of viremic patients induces a blockade of IL-7-induced nuclear translocation of phospho STAT5 (NT pSTAT5). […] Here we tested the effects of Peptide I on the capacity of the sera from VP to block IL-7-induced NTpSTAT5.
The effect of plasma from various HIV viremic patients (at least 5) were titrated on the inhibition of IL-7-induced NTpSTAT5. […]

## CC(C)C[C@@H]1NC(=O)[C@H](Cc2ccc3ccccc3c2)NC(=O)[C@H](CCCNC(=N)N)NC(=O)[C@H](Cc2ccc3ccccc3c2)NC(=O)[C@H](CO)NC1=O [Peptide I, cyclic(2-NaphthylAla-Leu-Ser-2-NaphthylAla-Arg)] (cyclo([2Nal]LS[2Nal]R); ring closure inferred)
[1]; 5 microM Peptide I
  inhibitory effect on recombinant PLA2GIB activity: effective
[1]; 10 microM Peptide I
  inhibitory effect on recombinant PLA2GIB activity: very strong
[1]; recombinant PLA2G1B 75 nanoM exposed 30 mn to Peptide I, calculated with Prism from two experiments, read-out: IC50 (inhibition of recombinant PLA2GIB biological activity)
  IC50: ~4.9 µM
[1]; recombinant pure enzyme in serum free buffer
  maximum inhibition (plateau) with the recombinant enzyme: around 80%
[2]; 15 microM Peptide I, sera from viremic HIV-infected patients at 1% or 3% dilution, five sera
  reversal of sera-induced inhibition of IL-7-induced nuclear translocation of pSTAT5: totally reversed this inhibition; also recorded: completely reverted the activity of the sera
[2]; plasma of viremic patients
  inhibition achieved when the plasma is used: around 100%
